Data reported in patent US20230365626A1, “Alloferon Peptide and Method Using the Same” (Industry Academy Cooperation Foundation of Sejong University, priority 2020, published 2023).

Legend:
[1] = tested on: TFEB, cathepsin B, and cathepsin D; assay: Western blot of TFEB, cathepsin B and cathepsin D expression; assay type: cell-based, ICR mouse; conditions: 1 μM TPEN with 20 μM alloferon D-form peptide, 4 hours (FIG. 5B)
Experimental: The cerebral cortex nerve cells of the mice were obtained by extracting the cerebrum from ICR mouse embryos of 13-14 day gestation. 6-7 hemispheres per culture dish were inoculated on 24-well culture dishes or 6-well culture dishes (SPL Life Science, South Korea) coated with 0.01% poly-D-lysine (Sigma, USA) prepared in advance. A cell culture medium, in which Dulbecco's Modified Eagle's Medium (DMEM, Gibco, USA) to which 20 mM glucose and 38 mM sodium bicarbonate were added and which was further supplemented with 5% fetal bovine serum (Hyclone, USA), 5% horse serum (Gibco, USA), and 1% glutamine, was used, and the cell culture medium was incubated in a cell incubator, in which the conditions of 37° C. and 5% CO2 were maintained, and was used in this experiment 10 to 12 days in vitro (DIV) after inoculation.
The present inventors had observed that the effect of enhancing the autophagic flux by the alloferon D-form peptides is achieved through the activity of cathepsin B and the decrease in the lysosomal pH, and thus, this time, the present inventors investigated through western blot analysis in order to find out whether there is a change in the amount of lysosomal protease expression. […]

[2] = tested on: cerebral cortical nerve cells; assay: Zinpyr-1 staining (zinc in the lysosome); assay type: cell-based, ICR mouse; conditions: in combination with 1 μM TPEN, 4 hours
Experimental: Subsequently, the present inventors measured the zinc concentration in the cells to determine what effect the treatment with the alloferon D-form peptides has on the zinc concentration in the lysosome. To this end, specifically, the cerebral cortical nerve cells were washed once with MEM, and then the MEM was replaced with MEM containing 5 μM zinpyr-1, an intracellular zinc marker (Cayman Chemical, USA, Ex=492 nm, Em=527 nm) and 75 nM lysotracker, and left at 37° C. for 30 minutes. Thereafter, it was washed with fresh MEM and treated with individual reagents (alloferon D-form peptides) according to the experimental conditions. Then, the cells were fixed with 4% PFA (pH 7.4) for 15 minutes, washed twice with PBS (Biowest, France), and photographed with a fluorescent microscope.

SMILES: c1ccc(CN(CCN(Cc2ccccn2)Cc2ccccn2)Cc2ccccn2)nc1 [TPEN, N,N,N′,N′-tetrakis(2-pyridylmethyl)ethylene-diamine]
- amounts of TFEB, cathepsin B, and cathepsin D [1]: reduced
- Zinpyr-1 fluorescence increased by the alloferon D-form peptides [2]: reduced
